Earlier results as cited in patent US20250341511A1, “MASS-TAG LABELING OF THE CELLULAR SECRETOME” (The Governing Council of the University of Toronto, priority 2022, published 2025).

Conditions: relative to required assay concentration

## C[Te]CCCOC(=O)NCCNC(=O)Cn1ccnc1[N+](=O)[O-] [Telox]
  metabolic LD50: close to the required assay concentration
